Test results published in patent US5567704A, “R-enatiomerically pure hydroxylated xanthine compounds to treat baldness” (priority 1995, dated 1996).

How the values were obtained:
[1] = endotoxin induced lethality in mice (survival); format: in vivo, mouse; conditions: mouse, in vivo, ip; CT1501R alone, no LPS, ten mice, same schedule
Experimental: (§1) Animals were treated with 10 μg/gm of LPS (i.v.) Immediately following the LPS (t=0), 2 hrs after the LPS (t=2) or 4 hrs following LPS (t=4) the mice were treated with their first treatment of CT1501R (100 mg/kg, i.p.). The mice were treated with CT1501R three times per day thereafter, and animal survival was monitored.
(§2) This example illustrates the effect of CT1501R on survival in mice given a lethal dose of endotoxin. We determined if CT1501R protects against endotoxin induced lethality in a murine model. Septic shock was modeled by endotoxin injection of 6-8 week old female Balb/c mice similar to previously published reports (Ashkenazi et al. Proc. Natl. Acad. Sci. U.S.A. 88: 10535-10539, 1991.) under protocols approved by the Animal Use Committee of the Biomembrane Institute, Seattle, Wash. Animals were injected intravaneously (i.v.) with an approximate LD100 dose (10 μg) of Salmonella abortus equi-derived endotoxin (Sigma Chemical Co., L-1887) in phosphate buffered saline (PBS). […] Control mice were injected at the same times with a similar volume of vehicle control (PBS). Survival was followed for at least 72 hours.
(§3) Ten mice were treated each with PBS alone or CT1501R alone on the same schedule as the experimental mice. […] Endotoxin survival data were summarized from a total of six (6) independent experiments. Summary Table 1 details the results of each of the six experiments. In FIG. 5, each time point represents a minimum of three (3) experiments comprising at least twenty (20) mice per group. A probability analysis of the survival data using a Fisher's Exact One Tailed Test is given as Table 3. Significant protection was conferred if CT1501R was administered immediately after the LPS treatment. The cumulative percent survival at 72 hours post LPS treatment was 60% compared to 7% for the LPS-only treated animals (p=<0.0005; Table 3).

[2] = tested on: Balb/c mice given a lethal dose of endotoxin; experiment: endotoxin induced lethality in mice (survival); format: in vivo, mouse; conditions: for cumulative percent survival: 72 hours post LPS
Experimental: as §1, §2, §3

nu/nu mice = experiment: nude mouse hair studies, topical application; format: in vivo
From the text: This example illustrates nude mouse hair studies involving topical application of CT1501R. Six to eight week old, female, nu/nu mice from Charles River Laboratories were housed at Biosupport Research Support Services (Seattle, Wash.) in autoclaved micro isolator units with hyperchlorinated autoclaved water, irradiated rodent chow and kept under a laminar flow hood. Caging was changed weekly, and water was changed twice weekly. The mice were acclimated for 5 days before beginning each study.
The first topical formulation was prepared by adding CT1501R to a heated hydrophilic ointment (USP) at a 1% concentration, and allowed to solidify.
Nude mice were painted twice daily for 16 days with the first topical formulation of CT1501R on the left flank and another compound in the same base on the right flank with sterile applicators. Mice were handled under the laminar flow hood with applicator wearing face mask and sterile gloves. After 16 days, one mouse was sacrificed by cervical dislocation and skin biopsies were taken of the treated areas of the shoulder/flank and from the non-treated area of the dorsal pelvis (rump). Specimens were placed in 10% buffered formalin solution. Biopsies were sent to a veterinary dermopathologist for histopathology. Six weeks following treatment, a second mouse was euthanatized and biopsied the same as the first. Samples were sent for histopathology.
In a second experiment, topical application of CT1501R was performed along with a commercial topical minoxidil preparation (Rogaine®, Upjohn) that is approved for a hair growth indication. Five to six week old, female, nu/nu mice from Bantin and Kingman Universal were housed at Biosupport Research Support Services (Seattle, Wash.) in autoclaved micro isolator units with hyper chlorinated autoclaved water, irradiated rodent chow and kept under a laminar flow hood. Caging was changed weekly, and water was changed twice weekly. Mice were acclimated for 7 days before beginning study.
CT1501R, and two other compounds were prepared in a topical formulation of 60% ETOH, 10% water and 30% PEG along with vehicle only. Minoxidil was purchased as the commercial preparation Rogaine® from a local pharmacy. Rogaine® is sold in the same formulation base. Mice were identified by unique tail markings specific for each test article. Two mice per group were treated with CT1501R and another compound. One mouse was treated with each of vehicle and minoxidil. The mice were handled under the laminar flow hood with the applicator wearing face mask and sterile gloves. Each mouse was treated twice daily with a separate sterile applicator to avoid contamination of the solutions or the mice. All mice were applied a strip of appropriate test article along the center line of the back from the base of the skull to the base of the tail, approximately 1.5 cm wide. After 34 days all mice were euthanatized by overdose of halothane anesthesia. Skin biopsies were taken from each of the 7 mice over the nape of the neck between the scapulas (approximate size was 1×1.5 cm). All specimens were blotted on gauze to remove blood and fluids, affixed to a cut piece of wooden tongue depressor, and placed specimen side down in separately marked containers with 10% buffered formalin. Specimens were shipped to a veterinary dermatopathologist for qualitative histopathological determinations.

[3] = first experiment, 1% in hydrophilic ointment, twice daily 16 days

Structure (SMILES): C[C@@H](O)CCCCn1c(=O)c2c(ncn2C)n(C)c1=O [CT1501R, (R)-1-(5-hydroxyhexyl)-3,7-dimethylxanthine]
- survival [1]: 100%
- cumulative percent survival ([2]; CT1501R four hours after LPS): 37%
- cumulative percent survival ([2]; CT1501R immediately after LPS): 60%
- cumulative percent survival ([2]; CT1501R two hours after LPS): 55%
- adverse effects ([2]; CT1501R alone, no LPS, ten mice, same schedule): no adverse effects noted
- Survival (Number Surviving/Total) ([2]; Expt. 1, CT-1501R t = 0 Hr post LPS, 24 Hr post LPS): 4/5
- Survival (Number Surviving/Total) ([2]; Expt. 1, CT-1501R t = 0 Hr post LPS, 48 Hr post LPS): 4/5
- Survival (Number Surviving/Total) ([2]; Expt. 1, CT-1501R t = 0 Hr post LPS, 72 Hr post LPS): 4/5
- Survival (Number Surviving/Total) ([2]; Expt. 1, CT-1501R t = 2 Hr post LPS, 24 Hr post LPS): 4/5
- Survival (Number Surviving/Total) ([2]; Expt. 1, CT-1501R t = 2 Hr post LPS, 48 Hr post LPS): 3/5
- Survival (Number Surviving/Total) ([2]; Expt. 1, CT-1501R t = 2 Hr post LPS, 72 Hr post LPS): 3/5
- Survival (Number Surviving/Total) ([2]; Expt. 2, CT-1501R t = 0 Hr post LPS, 24 Hr post LPS): 5/5
- Survival (Number Surviving/Total) ([2]; Expt. 2, CT-1501R t = 0 Hr post LPS, 48 Hr post LPS): 5/5
- Survival (Number Surviving/Total) ([2]; Expt. 2, CT-1501R t = 0 Hr post LPS, 72 Hr post LPS): 5/5
- Survival (Number Surviving/Total) ([2]; Expt. 2, CT-1501R t = 2 Hr post LPS, 24 Hr post LPS): 5/5
- Survival (Number Surviving/Total) ([2]; Expt. 2, CT-1501R t = 2 Hr post LPS, 48 Hr post LPS): 5/5
- Survival (Number Surviving/Total) ([2]; Expt. 2, CT-1501R t = 2 Hr post LPS, 72 Hr post LPS): 5/5
- Survival (Number Surviving/Total) ([2]; Expt. 3, CT-1501R t = 4 Hr post LPS, 24 Hr post LPS): 5/5
- Survival (Number Surviving/Total) ([2]; Expt. 3, CT-1501R t = 4 Hr post LPS, 48 Hr post LPS): 3/5
- Survival (Number Surviving/Total) ([2]; Expt. 3, CT-1501R t = 4 Hr post LPS, 72 Hr post LPS): 3/5
- Survival (Number Surviving/Total) ([2]; Expt. 4, CT-1501R t = 4 Hr post LPS, 24 Hr post LPS): 7/10
- Survival (Number Surviving/Total) ([2]; Expt. 4, CT-1501R t = 4 Hr post LPS, 48 Hr post LPS): 5/10
- Survival (Number Surviving/Total) ([2]; Expt. 4, CT-1501R t = 4 Hr post LPS, 72 Hr post LPS): 5/10
- Survival (Number Surviving/Total) ([2]; Expt. 5, CT-1501R t = 0 Hr post LPS, 24 Hr post LPS): 9/10
- Survival (Number Surviving/Total) ([2]; Expt. 5, CT-1501R t = 0 Hr post LPS, 48 Hr post LPS): 7/10
- Survival (Number Surviving/Total) ([2]; Expt. 5, CT-1501R t = 0 Hr post LPS, 72 Hr post LPS): 3/10
- Survival (Number Surviving/Total) ([2]; Expt. 5, CT-1501R t = 2 Hr post LPS, 24 Hr post LPS): 5/10
- Survival (Number Surviving/Total) ([2]; Expt. 5, CT-1501R t = 2 Hr post LPS, 48 Hr post LPS): 3/10
- Survival (Number Surviving/Total) ([2]; Expt. 5, CT-1501R t = 2 Hr post LPS, 72 Hr post LPS): 3/10
- Survival (Number Surviving/Total) ([2]; Expt. 5, CT-1501R t = 4 Hr post LPS, 24 Hr post LPS): 7/10
- Survival (Number Surviving/Total) ([2]; Expt. 5, CT-1501R t = 4 Hr post LPS, 48 Hr post LPS): 4/10
- Survival (Number Surviving/Total) ([2]; Expt. 5, CT-1501R t = 4 Hr post LPS, 72 Hr post LPS): 2/10
- Survival (Number Surviving/Total) ([2]; Expt. 6, CT-1501R t = 4 Hr post LPS, 24 Hr post LPS): 3/10
- Survival (Number Surviving/Total) ([2]; Expt. 6, CT-1501R t = 4 Hr post LPS, 48 Hr post LPS): 3/10
- Survival (Number Surviving/Total) ([2]; Expt. 6, CT-1501R t = 4 Hr post LPS, 72 Hr post LPS): 3/10
- survival compared with published results of Genentech's bifunctional TNF receptor ([2]; drug simultaneously or two hours after lethal LPS, FIGS. 15 and 16): consistently was better at improving survival than Genentech's TNF receptor
- Cumulative survival (Number Surviving/Total) ([2]; n = 3 expts, CT-1501R t = 0 Hr post LPS, 24 Hr post LPS): 18/20
- Cumulative survival (Number Surviving/Total) ([2]; n = 3 expts, CT-1501R t = 0 Hr post LPS, 48 Hr post LPS): 16/20
- Cumulative survival (Number Surviving/Total) ([2]; n = 3 expts, CT-1501R t = 0 Hr post LPS, 72 Hr post LPS): 12/20
- Cumulative survival (Number Surviving/Total) ([2]; n = 3 expts, CT-1501R t = 2 Hr post LPS, 24 Hr post LPS): 14/20
- Cumulative survival (Number Surviving/Total) ([2]; n = 3 expts, CT-1501R t = 2 Hr post LPS, 48 Hr post LPS): 11/20
- Cumulative survival (Number Surviving/Total) ([2]; n = 3 expts, CT-1501R t = 2 Hr post LPS, 72 Hr post LPS): 11/20
- Cumulative survival (Number Surviving/Total) ([2]; n = 4 expts, CT-1501R t = 4 Hr post LPS, 24 Hr post LPS): 22/35
- Cumulative survival (Number Surviving/Total) ([2]; n = 4 expts, CT-1501R t = 4 Hr post LPS, 48 Hr post LPS): 15/35
- Cumulative survival (Number Surviving/Total) ([2]; n = 4 expts, CT-1501R t = 4 Hr post LPS, 72 Hr post LPS): 13/35
- hair follicles, histopathology (nu/nu mice; [3]): significantly more normal appearing hair follicles than the non treated sections
- hair shafts, histopathology (nu/nu mice; [3]): Numerous hair shafts were seen exiting the follicles in the treated sections
- hair growth promotion compared with minoxidil (nu/nu mice; second experiment): at least as good at promoting hair growth in this model as minoxidil
- visual inspection of hair (nu/nu mice; second experiment, group of CT1501R, minoxidil and control): most "hairy"
- hair follicles, subjective histopathological examination (nu/nu mice; second experiment, topical twice daily, 34 days): greatest concentration of hair folicles
